Measurements from patent publication US20030229108A1, “Barbituric acid analogs as therapeutic agents” (priority 2000, published 2003).
pIC50: −log10 of the molar value.

test system: VEGF promoter (VEGF-luciferase reporter) in Hepatoma 3B (hep3B) cells; assay: VEGF-luciferase cell-based reporter assay, desferoxamine-induced, Hepatoma 3B (hep3B) cells; settings: 15 h, read-out: Secondary Assay VEGF-luciferase IC50
From the text: This cell-based reporter assay involves the use of a luciferase reporter gene under the direct control of the VEGF promoter. Induction of HIF using desferoxamine leads to the transcription of luciferase through activation of the VEGF (Vascular Endothelial Growth Factor) promoter, which in turn leads to an increase in luciferase activity, which can be measured using most commercially available luciferase assay kits. Molecules that disrupt the HIF complex cause inhibition of HIF-dependent luciferase activation and lead to a reduction in luciferase activity. This assay allows the activity of the compounds to be assessed against the VEGF promoter, which is essential for VEGF production and subsequent angiogenesis.
Hepatoma 3B (hep3B) cells (ATCC Ref. No. HB-8064) were plated in 24-well plates at 2×10^4/well in 500 μL DMEM/10% FCS, and were transfected the following day using Fugene 6 (Roche Biochemicals®, Lewes, E. Sussex, UK). Transfection mixtures per well contained 6 μL 10% Fugene, 200 ng VEGF-luciferase reporter (rat VEGF promoter, NCBI GenBank, accession number U22373, Levy et al., 1995) and 2 ng TK-renilla (Promega®, Madison, Wis., USA) (for transfection efficiency control). Transfection was performed as recommended by manufacturer. Compounds were added the following day. After 1 hour incubation at 37° C., desferoxamine (Sigma®, Dorset, UK) was added at 100 μM to induce HIF activity. Duplicate wells without desferoxamine were run in parallel. Cells were harvested 15 hours later, and luciferase activity was measured using Dual Luciferase Assay System (Promega®, see also Technical Manual, Part #TM040, Instructions for Use of Products E1910 and E1960, revised May/1999).

Compound	pIC50
CCOc1ccc(Br)cc1C=C1C(=O)NC(=S)NC1=O [PX089633]	4.30
Cc1cc2nc3c(=O)[nH]c(=O)nc-3n(CC(O)C(O)C(O)CO)c2cc1C (stereo not drawn) [P2083033]	4.70
O=C1NC(=S)NC(=O)C1=Cc1ccc(/C=C/c2ccccc2)cc1 [px106027, 5-(4-Styryl-benzylidene)-2-thioxo-dihydro-pyrimidine-4,6-dione]	4.12
COc1ccc2cccc(/C=C3/C(=O)NC(=S)N(c4ccc(Br)cc4)C3=O)c2c1 [PX106265]	4.49
COc1cccc(N2C(=O)/C(=C/c3ccsc3)C(=O)NC2=S)c1 [PX106287]	4.00
O=C1NC(=S)NC(=O)C1=Cc1ccco1 [PX083634, 5-(Furan-2-ylmethylene)-2-thioxo-dihydro-pyrimidine-4,6-dione]	4.30
O=C1NC(=S)NC(=O)C1=Cc1c2ccccc2cc2ccccc12 [PX106031, 5-(Anthracen-9-ylmethylene)-2-thioxo-dihydro-pyrimidine-4,6-dione]	4.30
O=C1NC(=S)NC(=O)C1=Cc1ccc(-c2cc(Cl)ccc2Cl)o1 [PX106326]	4.30
CN(C)c1ccc(C=C2C(=O)N(c3ccccc3)C(=S)N(c3ccccc3)C2=O)cc1[N+](=O)[O-] [PX089626]	4.12
O=C1NC(=S)NC(=O)C1=Cc1ccccc1OCc1ccccc1F [PX106343]	4.00
Cn1c(=O)[nH]c(=O)c2c1nc(N)n2CC(O)COc1ccc(Cl)cc1 (stereo not drawn) [PX084819]	4.30
Cc1cc2nc3c(=O)n(CC(=O)O)c(=O)nc-3n(C)c2cc1C [PX088992]	4.70
O=C1NC(=S)NC(=O)C1=C/C=C/c1ccccc1 [PX072015, 5-(3-Phenyl-allylidene)-2-thioxo-dihydro-pyrimidine-4,6-dione]	4.74
Cc1ccc(N2C(=O)/C(=C/c3ccoc3)C(=O)NC2=S)cc1 [PX106297]	4.00

target: T1, interaction between HIF-1α and p300 (His-HIF-1α / GST-p300) (Homo sapiens, UniProt Q09472+Q16665); assay: Primary assay: fluorescence-based (DELFIA) screening assay for inhibition of the HIF-1α/p300 interaction; format: binding; settings: not given
T1 construct: corresponding to the C-terminal 390 amino acids into vector pET28a; A plasmid containing the N-terminal 595 amino acids of human p300; made in house; host or cells: E. coli
T1 sequence (Q16665 437-826 limits assumed): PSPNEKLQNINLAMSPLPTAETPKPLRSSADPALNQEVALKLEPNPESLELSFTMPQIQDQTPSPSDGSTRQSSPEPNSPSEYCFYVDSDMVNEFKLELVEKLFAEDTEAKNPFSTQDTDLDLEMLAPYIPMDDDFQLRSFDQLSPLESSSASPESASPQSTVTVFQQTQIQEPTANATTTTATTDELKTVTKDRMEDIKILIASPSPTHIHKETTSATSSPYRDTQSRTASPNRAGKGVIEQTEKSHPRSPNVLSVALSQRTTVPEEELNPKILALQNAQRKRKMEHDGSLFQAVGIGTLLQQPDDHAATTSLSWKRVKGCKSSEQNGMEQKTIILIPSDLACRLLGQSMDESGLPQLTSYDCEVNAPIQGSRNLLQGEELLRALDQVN
T1 sequence (Q09472 1-595 limits assumed): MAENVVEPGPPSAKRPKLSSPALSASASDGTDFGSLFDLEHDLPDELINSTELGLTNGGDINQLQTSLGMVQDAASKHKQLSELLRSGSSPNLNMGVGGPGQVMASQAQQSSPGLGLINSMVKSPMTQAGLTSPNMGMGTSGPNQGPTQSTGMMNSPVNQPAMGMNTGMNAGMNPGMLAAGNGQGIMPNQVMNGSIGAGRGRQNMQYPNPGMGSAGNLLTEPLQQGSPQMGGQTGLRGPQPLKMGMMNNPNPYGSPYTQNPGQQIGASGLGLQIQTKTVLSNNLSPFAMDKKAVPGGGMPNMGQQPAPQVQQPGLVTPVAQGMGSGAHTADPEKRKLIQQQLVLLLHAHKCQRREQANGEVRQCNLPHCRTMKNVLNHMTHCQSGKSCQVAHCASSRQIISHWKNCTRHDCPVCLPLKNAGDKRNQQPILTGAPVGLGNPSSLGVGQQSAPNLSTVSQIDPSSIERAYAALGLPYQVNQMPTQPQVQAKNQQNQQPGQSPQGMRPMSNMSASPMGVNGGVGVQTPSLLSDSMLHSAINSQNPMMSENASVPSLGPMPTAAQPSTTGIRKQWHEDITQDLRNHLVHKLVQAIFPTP
Description: Candidate compounds were assessed for their ability to inhibit the interaction between HIF-1α and p300 using a high throughput fluorescence-based screening assay (DELFIA) as follows.
A plasmid expressing His-HIF-1α fusion protein was constructed by PCR, by amplifying and subcloning a fragment of the human HIF-1α cDNA (NCBI GenBank, accession number AH006957) corresponding to the C-terminal 390 amino acids into vector pET28a (Novagen®, Madison, Wis., USA). A plasmid containing the N-terminal 595 amino acids of human p300 (NCBI GenBank, accession number U01877) inserted into vector pGEX2T (Pharmacia®, Little Chalfont, Bucks, UK) was used for the production of GST-p300 fusion protein. The recombinant proteins were produced in E. coli. His-HIF-1α was purified using Ni-NTA agarose beads, according to manufacture's method (Qiagen®, Crawley, West Sussex, UK). GST-p300 was purified using Glutathione-sepharose beads (Amersham Pharmacia®, Little Chalfont, Bucks, UK) according to manufacturer's instructions. A titration of every batch of p300 was carried out in order to determine the optimum dilution of the protein to obtain at least a 10:1 ratio signal to noise in the binding assay.
The assay was performed in 96-well Polysorb plates (Nalge Nunc International®, Rochester, N.Y., USA) as follows. Plates were coated with His-HIF-1α at 50 ng/well in […] and incubated overnight at 4° C. The plates were then washed 3 times with deionized water and blocked with 100 μL/well 3% BSA in PBS for 3 hours at 4° C. After washing 3 times as before, GST-p300 was added at the appropriate dilution (1:800 in this screening) in binding buffer (50 mM HEPES pH 7.5, 50 mM NaCl, 0.1% BSA, 0.5 mM DTT). The reaction was incubated at room temperature for 1 hour. Plates were washed 3 times and anti-GST Europium-conjugated antibody (from Wallac®, Turku, Finland) was added at 50 ng/well in […]. After 45 minutes incubation, plates were washed 3 times as before. Then, 100 μL/well enhancement solution (from Wallac®, Catalog No. 1244-105) was added and allowed to react for 15 minutes at room temperature. Plates were read on a Victor 2 plate reader (from Wallac®).

Compound	pIC50
O=C1NC(=O)C(=Cc2ccccc2Cl)C(=O)N1 [PX083677]	3.40
O=C1NC(=S)N(c2ccc(F)cc2)C(=O)/C1=C/c1ccc2c(c1)OCO2 [PX106255]	5.52
COc1cc(C=C2C(=O)NC(=O)NC2=O)ccc1O [PX072008]	3.52
CCN(CC)c1ccc(C=C2C(=O)N(c3ccccc3)C(=S)N(c3ccccc3)C2=O)cc1 [PX089647]	4.00
COc1ccc(OC)c(C=C2C(=O)NC(=O)NC2=O)c1 [PX075257]	3.46
CCOc1ccc(Br)cc1C=C1C(=O)NC(=S)NC1=O [PX089633]	4.15
COc1ccc(C=C2C(=O)NC(=O)NC2=O)cc1 [PX089375]	3.70
O=C1NC(=S)N(c2ccc(Cl)cc2)C(=O)/C1=C/C=C/c1ccco1 [PX106291]	4.10
O=C1NC(=O)C(=Cc2cccc(O)c2)C(=O)N1 [PX089376]	3.70
O=C1NC(=O)C(=Cc2cccc(OCc3ccccc3)c2)C(=O)N1 [PX075245]	3.90
O=C1NC(=S)NC(=O)C1=Cc1ccc(Cl)cc1 [PX089640, 5-(4-Chloro-benzylidene)-2-thioxo-dihydro-pyrimidine-4,6-dione]	4.00
COc1ccc2cccc(/C=C3/C(=O)NC(=S)N(c4ccc(Br)cc4)C3=O)c2c1 [PX106265]	4.30
O=C1NC(=O)C(=Cc2ccc(Cl)c(Cl)c2)C(=O)N1 [PX072002]	3.65
COc1ccccc1C=C1C(=O)NC(=S)NC1=O [PX105993, 5-(2-Methoxy-benzylidene)-2-thioxo-dihydro-pyrimidine-4,6-dione]	4.10
Cc1cc(C=C2C(=O)NC(=S)NC2=O)c(C)n1-c1sc2c(c1C#N)CCCC2 [PX106174]	4.37
COc1ccc(C=C2C(=O)NC(=S)NC2=O)cc1OC [PX075262, 5-(3,4-Dimethoxy-benzylidene)-2-thioxo-dihydro-pyrimidine-4,6-dione]	4.19
O=C1NC(=O)C(=Cc2ccc(O)c(O)c2)C(=O)N1 [PX089374]	3.64
CC(=O)Nc1ccc(C=C2C(=O)NC(=S)NC2=O)cc1 [PX089632, N-[4-(4,6-Dioxo-2-thioxo-tetrahydro-pyrimidin-5-ylidenemethyl)-phenyl]-acetamide]	4.82
Cc1ccccc1N1C(=O)/C(=C/c2ccco2)C(=O)NC1=S [PX106130]	4.54
O=C1NC(=O)C(=Cc2ccccc2)C(=O)N1 [PX089368]	3.46
O=C1NC(=O)C(=Cc2ccc(Cl)cc2Cl)C(=O)N1 [PX089367]	3.70
O=C1NC(=S)NC(=O)C1=Cc1ccco1 [PX083634, 5-(Furan-2-ylmethylene)-2-thioxo-dihydro-pyrimidine-4,6-dione]	4.19

Compound	pIC50
COc1cc(C=C2C(=O)NC(=O)NC2=O)c([N+](=O)[O-])cc1OCc1ccccc1 [PX069153]	3.70
COc1ccc(OC)c(N2C(=O)/C(=C/c3ccco3)C(=O)NC2=S)c1 [PX106274]	4.54
COc1cccc(C=C2C(=O)NC(=O)NC2=O)c1OC [PX089371]	3.40
O=C1NC(=O)C(=CC2CC=CCC2)C(=O)N1 (stereo not drawn) [PX089369]	3.65
O=C1NC(=S)NC(=O)C1=Cc1cccs1 [PX089638]	3.89
O=C1NC(=S)NC(=O)C1=Cc1ccc(-c2cc(Cl)ccc2Cl)o1 [PX106326]	4.40
CN(C)c1ccc(C=C2C(=O)N(c3ccccc3)C(=S)N(c3ccccc3)C2=O)cc1[N+](=O)[O-] [PX089626]	4.40
O=C1NC(=S)NC(=O)C1=Cc1ccccc1OCc1ccccc1F [PX106343]	4.31
COc1ccc(C=C2C(=O)NC(=S)NC2=O)cc1OCc1ccccc1 [PX105990, 5-(3-Benzyloxy-4-methoxy-benzylidene)-2-thioxo-dihydro-pyrimidine-4,6-dione]	4.70
CCOc1ccc(C=C2C(=O)NC(=O)NC2=O)cc1 [PX072012]	3.76
COc1ccc(C=C2C(=O)NC(=O)NC2=O)c(Cl)c1OC [PX074728]	3.90
O=C1NC(=O)C(=C/C=N/Nc2ccccc2)C(=O)N1 [PX089620]	4.10
O=C1NC(=O)C(=Cc2ccc3c(c2)OCO3)C(=O)N1 [PX075240]	4.00
O=C1NC(=O)C(=C/C=C/c2ccccc2)C(=O)N1 [PX089370]	3.65
CCOc1ccccc1C=C1C(=O)NC(=O)NC1=O [PX075248]	3.35
O=C1NC(=O)C(=Cc2ccc(O)cc2)C(=O)N1 [PX089377]	3.40
O=C1NC(=S)N(c2ccc(F)cc2)C(=O)/C1=C/c1ccc(-c2ccc(Cl)c(C(=O)O)c2)o1 [PX106244]	4.40
COc1ccc(C=C2C(=O)N(c3ccccc3)C(=S)N(c3ccccc3)C2=O)cc1OC [PX089646]	4.00
O=C1NC(=O)C(=Cc2c(F)cccc2Cl)C(=O)N1 [PX069119]	3.60
COc1ccc(C=C2C(=O)NC(=O)NC2=O)cc1OC [PX072004]	3.60
O=C1NC(=S)NC(=O)C1=C/C=N/Nc1ccccc1 [PX089619]	3.74
Cc1ccc(N2C(=O)/C(=C/c3ccoc3)C(=O)NC2=S)cc1 [PX106297]	4.49

same assay, conditions: read-out: Primary Assay Inhibition IC50

Compound	pIC50
Cn1c(=O)c2c(ncn2CC(O)CN2CCN(c3cccc(Cl)c3)CC2)n(C)c1=O (stereo not drawn) [P2082796]	3.82
COc1cccc(-c2nc3c(=N)n(-c4ccc(Cl)cc4)c(=O)[nH]c3c(=O)[nH]2)c1O [P2081958]	3.90
Cn1c(=O)[nH]c(=O)c2c1nc(N)n2CC(O)COc1ccc(Cl)cc1 (stereo not drawn) [PX084819]	5.00
COc1ccc(-c2nc3c(=N)n(-c4cccc(C(F)(F)F)c4)c(=O)[nH]c3c(=O)[nH]2)cc1OC [P2082229]	3.90
COc1ccc(-c2nc3c(=N)n(-c4ccc(Cl)cc4)c(=O)[nH]c3c(=O)[nH]2)cc1 [PX081770]	3.90
N=c1c2nc(-c3ccccc3)[nH]c(=O)c2[nH]c(=O)n1-c1ccccc1 [P2082132]	3.90
Cc1cc2nc3c(=O)n(CC(=O)O)c(=O)nc-3n(C)c2cc1C [PX088992]	5.00
N=c1c2nc(-c3ccc4c(c3)OCO4)[nH]c(=O)c2[nH]c(=O)n1-c1ccc(Cl)cc1 [P2082202]	3.60
